Results as given in PubChem BioAssay AID330 (DTP/NCI, 2004).
“And” between values parts separate entries of the source, which are not always exact repeats. Identical values can stand only once. Inconclusive results and toxic doses are left out.

System: P388 leukemia ip, CD2F1 mice, survival T/C
Assay: NCI In Vivo Anticancer Drug Screen. Data for tumor model P388 Leukemia (intraperitoneal) in CD2F1 (CDF1) mice
Conditions: endpoint: median survival time, higher = longer survival
Outline: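 Mice carrying the transplanted tumor received test compound or vehicle. Survival was recorded in each group, and the value is the treated-group measurement divided by that of the vehicle-treated control group.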

[1] = dose: 50.0 mg/kg/injection, schedule: Q01DX009 (ip), vehicle: saline with Tween-80
[2] = dose: 100.0 mg/kg/injection, schedule: Q01DX009 (ip), vehicle: saline with Tween-80
[3] = dose: 50.0 mg/kg/injection, schedule: Q01DX005 (ip), vehicle: Klucel (hydroxypropylcellulose) (HPC)
[4] = dose: 100.0 mg/kg/injection, schedule: Q01DX005 (ip), vehicle: Klucel (hydroxypropylcellulose) (HPC)
[5] = dose: 60.0 mg/kg/injection, schedule: Q01DX005 (ip), vehicle: saline with Tween-80
[6] = dose: 120.0 mg/kg/injection, schedule: Q01DX005 (ip), vehicle: saline with Tween-80
[7] = dose: 240.0 mg/kg/injection, schedule: Q01DX005 (ip), vehicle: saline with Tween-80

With CCCCOc1ccc(NN=O)cn1 the T/C (dose: 3.12 mg/kg/injection, schedule: Q01DX009 (ip), vehicle: water) was 106 % of control, the T/C (dose: 6.25 mg/kg/injection, schedule: Q01DX009 (ip), vehicle: water) was 92 % of control and the T/C (dose: 12.5 mg/kg/injection, schedule: Q01DX009 (ip), vehicle: water) was 99 % of control. For the same molecule, the T/C (dose: 25.0 mg/kg/injection, schedule: Q01DX009 (ip), vehicle: water) was 93 % of control, the T/C (dose: 50.0 mg/kg/injection, schedule: Q01DX009 (ip), vehicle: water) was 92 % of control and 97 % of control and the T/C (dose: 100.0 mg/kg/injection, schedule: Q01DX009 (ip), vehicle: water) was 97 % of control. The T/C (dose: 200.0 mg/kg/injection, schedule: Q01DX009 (ip), vehicle: water) was 101 % of control.

With CC(=O)OC1CCC(C2CCCCC2)CC1 (stereo unspecified) the T/C (dose: 100.0 mg/kg/injection, schedule: Q01DX009 (ip), vehicle: saline) was 102 % of control, the T/C (dose: 200.0 mg/kg/injection, schedule: Q01DX009 (ip), vehicle: saline) was 97 % of control and the T/C (dose: 400.0 mg/kg/injection, schedule: Q01DX009 (ip), vehicle: saline) was 101 % of control.

O=C1NN=C(c2ccccc2)CS1 was tested, and the T/C [1] was 98 % of control and the T/C [2] was 101 % of control.

With CN(C)Cc1cnccc1I the T/C (dose: 50.0 mg/kg/injection, schedule: Q01DX005 (ip), vehicle: suspension in saline) was 101 % of control, the T/C (dose: 100.0 mg/kg/injection, schedule: Q01DX005 (ip), vehicle: suspension in saline) was 104 % of control and the T/C (dose: 200.0 mg/kg/injection, schedule: Q01DX005 (ip), vehicle: suspension in saline) was 108 % of control.

For O=C1CSC(=S)N1/N=C/c1ccccc1, the T/C (dose: 25.0 mg/kg/injection, schedule: Q04DX002 (ip), vehicle: saline) was 100 % of control, the T/C (dose: 50.0 mg/kg/injection, schedule: Q04DX002 (ip), vehicle: saline) was 105 % of control and the T/C (dose: 100.0 mg/kg/injection, schedule: Q04DX002 (ip), vehicle: saline) was 98 % of control.

In the case of COc1cc(C(O)Cc2ccccc2)cc(OC)c1OC (stereo unspecified), the T/C (dose: 31.25 mg/kg/injection, schedule: Q01DX009 (ip), vehicle: saline + Tween-80 + alcohol) is reported as 98 % of control, the T/C (dose: 62.5 mg/kg/injection, schedule: Q01DX009 (ip), vehicle: saline + Tween-80 + alcohol) is reported as 109 % of control and the T/C (dose: 125.0 mg/kg/injection, schedule: Q01DX009 (ip), vehicle: saline + Tween-80 + alcohol) is reported as 91 % of control. For the same molecule, the T/C (dose: 250.0 mg/kg/injection, schedule: Q01DX009 (ip), vehicle: saline + Tween-80 + alcohol) was 89 % of control.

In the case of CCCCCCCCCCCCCCCCCCOC(=O)C1CCCN1 (stereo unspecified), the T/C (dose: 100.0 mg/kg/injection, schedule: Q04DX002 (ip), vehicle: Klucel (hydroxypropylcellulose) (HPC)) is reported as 101 % of control, the T/C (dose: 200.0 mg/kg/injection, schedule: Q04DX002 (ip), vehicle: Klucel (hydroxypropylcellulose) (HPC)) is reported as 99 % of control and the T/C (dose: 400.0 mg/kg/injection, schedule: Q04DX002 (ip), vehicle: Klucel (hydroxypropylcellulose) (HPC)) is reported as 94 % of control.

CC1=CC(O/C=C2\C(=O)OC3C=CCC23)OC1=O (stereo unspecified) was tested, and the T/C (dose: 100.0 mg/kg/injection, schedule: Q04DX002 (ip), vehicle: suspension in saline) was 99 % of control, the T/C (dose: 200.0 mg/kg/injection, schedule: Q04DX002 (ip), vehicle: suspension in saline) was 98 % of control and the T/C (dose: 400.0 mg/kg/injection, schedule: Q04DX002 (ip), vehicle: suspension in saline) was 111 % of control.

In the case of CN(C)CCNc1cccc2oc3ccc(O)cc3c(=O)c12, the T/C (dose: 25.0 mg/kg/injection, schedule: Q01DX005 (ip), vehicle: Klucel (hydroxypropylcellulose) (HPC)) is reported as 101 % of control, the T/C [3] is reported as 107 % of control and the T/C [4] is reported as 110 % of control. The T/C (dose: 200.0 mg/kg/injection, schedule: Q01DX005 (ip), vehicle: Klucel (hydroxypropylcellulose) (HPC)) was 114 % of control.

With COC(=O)CC1(C(=O)OC)C2=C(CCCC2)N2CCCC21 (stereo unspecified) the T/C (dose: 21.88 mg/kg/injection, schedule: Q01DX009 (ip), vehicle: Klucel (hydroxypropylcellulose) (HPC)) was 102 % of control, the T/C (dose: 43.75 mg/kg/injection, schedule: Q01DX009 (ip), vehicle: Klucel (hydroxypropylcellulose) (HPC)) was 102 % of control and the T/C (dose: 87.5 mg/kg/injection, schedule: Q01DX009 (ip), vehicle: Klucel (hydroxypropylcellulose) (HPC)) was 100 % of control. For the same molecule, the T/C (dose: 175.0 mg/kg/injection, schedule: Q01DX009 (ip), vehicle: Klucel (hydroxypropylcellulose) (HPC)) was 100 % of control.

For COC(=O)C12OCC34C(CC5C(C)C6=CC(=O)OC6=CC5(C)C3C(O)C1O)OC(=O)C(OC(C)=O)C24 (stereo unspecified), the T/C (dose: 18.37 mg/kg/injection, schedule: Q01DX005 (ip), vehicle: Klucel (hydroxypropylcellulose) (HPC)) was 106 % of control and the T/C (dose: 36.75 mg/kg/injection, schedule: Q01DX005 (ip), vehicle: Klucel (hydroxypropylcellulose) (HPC)) was 115 % of control.

With Nc1nnc2nc(CC(=O)c3cccc([N+](=O)[O-])c3)/c(=C/C(=O)c3cccc([N+](=O)[O-])c3)n12 the T/C (dose: 50.0 mg/kg/injection, schedule: Q01DX005 (ip), vehicle: saline with Tween-80) was 94 % of control, the T/C (dose: 100.0 mg/kg/injection, schedule: Q01DX005 (ip), vehicle: saline with Tween-80) was 91 % of control and the T/C (dose: 200.0 mg/kg/injection, schedule: Q01DX005 (ip), vehicle: saline with Tween-80) was 101 % of control.

With CC(C)CCNc1ncnc2c1cnn2C the T/C (dose: 25.0 mg/kg/injection, schedule: Q04DX003 (ip), vehicle: saline) was 95 % of control, the T/C (dose: 50.0 mg/kg/injection, schedule: Q04DX003 (ip), vehicle: saline) was 100 % of control and the T/C (dose: 100.0 mg/kg/injection, schedule: Q04DX003 (ip), vehicle: saline with Tween-80) was 109 % of control.

For CC1=CC(=O)C(O)C2(C)C(CCC3(C)OCCO3)C=C(O[Si](C)(C)C(C)(C)C)CC12 (stereo unspecified), the T/C [5] was 96 % of control, the T/C [6] was 96 % of control and the T/C [7] was 100 % of control.

Cc1ccc(NC(=O)Oc2ccc(Cl)cc2Cl)c([N+](=O)[O-])c1 was tested, and the T/C (dose: 50.0 mg/kg/injection, schedule: Q01DX009 (ip), vehicle: gum acacia) was 109 % of control, the T/C (dose: 100.0 mg/kg/injection, schedule: Q01DX009 (ip), vehicle: gum acacia) was 109 % of control and the T/C (dose: 200.0 mg/kg/injection, schedule: Q01DX009 (ip), vehicle: gum acacia) was 109 % of control.

For Clc1ccccc1OCC1CO1 (stereo unspecified), the T/C [2] was 100 % of control, the T/C (dose: 200.0 mg/kg/injection, schedule: Q01DX009 (ip), vehicle: saline with Tween-80) was 109 % of control and the T/C (dose: 400.0 mg/kg/injection, schedule: Q01DX009 (ip), vehicle: saline with Tween-80) was 109 % of control.

With O=C1OCC(c2ccno2)=C1O the T/C (dose: 60.0 mg/kg/injection, schedule: Q01DX005 (ip), vehicle: Klucel (hydroxypropylcellulose) (HPC)) was 100 % of control, the T/C (dose: 120.0 mg/kg/injection, schedule: Q01DX005 (ip), vehicle: Klucel (hydroxypropylcellulose) (HPC)) was 100 % of control and the T/C (dose: 240.0 mg/kg/injection, schedule: Q01DX005 (ip), vehicle: Klucel (hydroxypropylcellulose) (HPC)) was 104 % of control.

With NC(=O)c1cc([N+](=O)[O-])cc([N+](=O)[O-])c1 the T/C (dose: 25.0 mg/kg/injection, schedule: Q01DX009 (ip), vehicle: Klucel (hydroxypropylcellulose) (HPC)) was 103 % of control, the T/C (dose: 50.0 mg/kg/injection, schedule: Q01DX009 (ip), vehicle: Klucel (hydroxypropylcellulose) (HPC)) was 88 % of control and the T/C (dose: 100.0 mg/kg/injection, schedule: Q01DX009 (ip), vehicle: Klucel (hydroxypropylcellulose) (HPC)) was 91 % of control.

In the case of CN(Cc1cnc2nc(N[Si](C)(C)C)nc(N[Si](C)(C)C)c2n1)c1ccc(C(=O)NC(CCC(=O)O[Si](C)(C)C)C(=O)O[Si](C)(C)C)cc1 (stereo unspecified), the T/C (dose: 0.63 mg/kg/injection, schedule: Q01DX009 (ip), vehicle: saline) is reported as 165 % of control, the T/C (dose: 1.25 mg/kg/injection, schedule: Q01DX009 (ip), vehicle: saline) is reported as 191 % of control and the T/C (dose: 1.9 mg/kg/injection, schedule: Q04DX003 (ip), vehicle: saline) is reported as 159 % of control. For the same molecule, the T/C (dose: 2.5 mg/kg/injection, schedule: Q01DX009 (ip), vehicle: saline) was 226 % of control, the T/C (dose: 3.8 mg/kg/injection, schedule: Q04DX003 (ip), vehicle: saline) was 177 % of control and the T/C (dose: 7.5 mg/kg/injection, schedule: Q04DX003 (ip), vehicle: saline) was 195 % of control. For the same molecule, the T/C (dose: 15.0 mg/kg/injection, schedule: Q04DX003 (ip), vehicle: saline) was 218 % of control, the T/C (dose: 30.0 mg/kg/injection, schedule: Q04DX003 (ip), vehicle: saline) was 236 % of control and the T/C (dose: 60.0 mg/kg/injection, schedule: Q04DX003 (ip), vehicle: saline) was 109 % of control.

With CC12CCC3c4ccc(O)cc4CCC3C1CCC2(O)CN1CCCCC1 (stereo unspecified) the T/C [3] was 96 % of control and the T/C [4] was 91 % of control.

In the case of OCc1ccccc1Cn1ccnc1, the T/C [5] is reported as 96 % of control, the T/C [6] is reported as 93 % of control and the T/C [7] is reported as 96 % of control.

CC(=O)Nc1ccc(S(=O)(=O)/N=C2\C=CC(=O)c3ccccc32)cc1 was tested, and the T/C (dose: 25.0 mg/kg/injection, schedule: Q01DX009 (ip), vehicle: saline with Tween-80) was 105 % of control, the T/C [1] was 115 % of control and the T/C [2] was 110 % of control.
